Laboratory results as given in US20110294772A1, “USE OF CYCLOSQUARAMIDE COMPOUNDS AS ANTI-TUMOUR AGENTS” (priority 2008, published 2011).
pIC50: −log10 of the molar value. Where “and” joins values, the source holds several entries; their conditions need not be identical. Identical values can stand only once.

Assays:
ABL1 = ABL1 (Homo sapiens, UniProt P00519); experiment: in vitro kinase assay; type: biochemical
Protocol: (§1) Specifically, against a panel of 210 kinases representative of the human kinome, the compounds tested inhibited by […] the activity of 25 of them in in Vitro assays (Table 1).
(§2) The IC50 was determined for the most sensitive kinases to compound 10, obtaining values for said parameter, largely in the micromolar range. For this purpose, the 25 kinases inhibited more than 80% by the compound in in vitro assays were selected.

ACK1 = ACK1 (Homo sapiens, UniProt Q07912); experiment: in vitro kinase assay; type: biochemical
Protocol: as §1, §2

CDK4/CycD3 = CDK4/CycD3 (Homo sapiens, UniProt P11802); experiment: in vitro kinase assay; type: biochemical
CDK4/CycD3, sequence (P11802 whole entry): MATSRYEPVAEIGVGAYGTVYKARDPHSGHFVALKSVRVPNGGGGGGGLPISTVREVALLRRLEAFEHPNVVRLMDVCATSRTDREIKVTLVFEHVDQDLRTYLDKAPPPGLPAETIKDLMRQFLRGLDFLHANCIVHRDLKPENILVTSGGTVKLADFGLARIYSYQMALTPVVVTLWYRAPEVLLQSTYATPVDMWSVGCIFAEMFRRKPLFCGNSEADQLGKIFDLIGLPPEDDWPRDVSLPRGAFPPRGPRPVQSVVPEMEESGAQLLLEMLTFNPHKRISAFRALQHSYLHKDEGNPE
CDK4/CycD3, sequence (P30281 whole entry partner): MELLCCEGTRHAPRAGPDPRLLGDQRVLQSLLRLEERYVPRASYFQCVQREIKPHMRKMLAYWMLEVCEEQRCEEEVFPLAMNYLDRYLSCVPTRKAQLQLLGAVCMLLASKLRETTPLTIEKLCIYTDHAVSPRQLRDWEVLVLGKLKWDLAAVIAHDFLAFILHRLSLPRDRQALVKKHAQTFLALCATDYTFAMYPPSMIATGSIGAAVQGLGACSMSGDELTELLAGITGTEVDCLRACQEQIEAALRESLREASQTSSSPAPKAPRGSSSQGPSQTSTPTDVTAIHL
Protocol: as §1, §2

CDK5/p25NCK = CDK5/p25NCK (Homo sapiens, UniProt Q00535); experiment: in vitro kinase assay; type: biochemical
CDK5/p25NCK, sequence (Q00535 whole entry): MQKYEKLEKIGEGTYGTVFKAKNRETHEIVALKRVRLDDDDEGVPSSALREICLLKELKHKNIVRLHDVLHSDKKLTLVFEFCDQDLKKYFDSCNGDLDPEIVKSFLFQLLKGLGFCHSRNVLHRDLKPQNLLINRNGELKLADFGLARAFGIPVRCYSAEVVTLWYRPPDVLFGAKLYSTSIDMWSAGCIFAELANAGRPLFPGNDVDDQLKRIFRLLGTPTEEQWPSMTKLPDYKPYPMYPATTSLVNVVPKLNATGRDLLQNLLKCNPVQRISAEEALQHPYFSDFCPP
CDK5/p25NCK, sequence (Q15078 99-307 partner limits assumed): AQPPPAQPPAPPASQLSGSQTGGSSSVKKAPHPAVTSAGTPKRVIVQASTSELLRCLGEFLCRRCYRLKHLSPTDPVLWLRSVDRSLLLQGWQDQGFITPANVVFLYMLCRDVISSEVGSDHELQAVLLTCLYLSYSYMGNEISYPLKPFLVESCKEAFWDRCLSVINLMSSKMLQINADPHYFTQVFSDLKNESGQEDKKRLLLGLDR
Protocol: as §1, §2

CDK7/CycH/Mat1 = CDK7/CycH/Mat1 (Homo sapiens, UniProt P50613); experiment: in vitro kinase assay; type: biochemical
Protocol: as §1, §2

CDK9/CycT = CDK9/CycT (Homo sapiens, UniProt P50750); experiment: in vitro kinase assay; type: biochemical
CDK9/CycT, sequence (P50750 whole entry): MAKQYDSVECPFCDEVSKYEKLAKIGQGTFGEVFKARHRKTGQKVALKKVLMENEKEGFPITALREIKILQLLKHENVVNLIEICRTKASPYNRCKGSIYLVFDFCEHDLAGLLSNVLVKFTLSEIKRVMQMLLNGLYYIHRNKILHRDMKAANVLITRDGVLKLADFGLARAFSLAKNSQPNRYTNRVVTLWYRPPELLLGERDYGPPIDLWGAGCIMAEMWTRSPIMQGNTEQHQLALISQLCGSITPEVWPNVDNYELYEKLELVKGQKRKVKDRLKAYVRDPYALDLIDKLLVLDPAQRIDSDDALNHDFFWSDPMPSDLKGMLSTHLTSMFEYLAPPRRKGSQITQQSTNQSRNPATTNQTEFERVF
CDK9/CycT, sequence (O60563 whole entry partner): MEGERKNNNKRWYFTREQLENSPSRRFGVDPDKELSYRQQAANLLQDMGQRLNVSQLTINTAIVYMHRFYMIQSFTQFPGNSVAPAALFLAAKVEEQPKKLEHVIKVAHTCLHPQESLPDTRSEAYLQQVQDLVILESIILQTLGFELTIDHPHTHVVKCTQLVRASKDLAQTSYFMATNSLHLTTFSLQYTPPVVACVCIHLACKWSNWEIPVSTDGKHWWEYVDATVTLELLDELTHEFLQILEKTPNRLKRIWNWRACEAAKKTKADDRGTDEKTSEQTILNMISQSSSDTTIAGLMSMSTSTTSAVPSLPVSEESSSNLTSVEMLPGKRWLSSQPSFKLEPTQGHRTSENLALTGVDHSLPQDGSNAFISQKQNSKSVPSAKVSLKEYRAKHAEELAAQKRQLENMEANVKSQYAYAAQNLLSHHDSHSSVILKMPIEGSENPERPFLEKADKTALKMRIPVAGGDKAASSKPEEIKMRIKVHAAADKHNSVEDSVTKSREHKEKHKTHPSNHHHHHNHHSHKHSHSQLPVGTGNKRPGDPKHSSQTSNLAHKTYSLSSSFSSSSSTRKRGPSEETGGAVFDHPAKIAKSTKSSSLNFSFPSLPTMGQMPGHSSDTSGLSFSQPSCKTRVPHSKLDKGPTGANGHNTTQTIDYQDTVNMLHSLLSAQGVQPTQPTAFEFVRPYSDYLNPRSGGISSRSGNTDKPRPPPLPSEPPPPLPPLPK
Protocol: as §1, §2

CHK1 = CHK1 (Homo sapiens, UniProt O14757); experiment: in vitro kinase assay; type: biochemical
Protocol: as §1, §2

CSK = CSK (Homo sapiens, UniProt P41240); experiment: in vitro kinase assay; type: biochemical
Protocol: as §1, §2

FGF-R1 VM = FGF-R1 VM (Homo sapiens, UniProt P11362, V561M); experiment: in vitro kinase assay; type: biochemical
Protocol: as §1, §2

FGF-R2 = FGF-R2 (Homo sapiens, UniProt P21802); experiment: in vitro kinase assay; type: biochemical
Protocol: as §1, §2

MET = MET (Homo sapiens, UniProt P08581); experiment: in vitro kinase assay; type: biochemical
Protocol: as §1, §2

MUSK = MUSK (Homo sapiens, UniProt O15146); experiment: in vitro kinase assay; type: biochemical
Protocol: as §1, §2

NLK = NLK (Homo sapiens, UniProt Q9UBE8); experiment: in vitro kinase assay; type: biochemical
Protocol: as §1, §2

PAK4 = PAK4 (Homo sapiens, UniProt O96013); experiment: in vitro kinase assay; type: biochemical
Protocol: as §1, §2

PAK7 = PAK7 (Homo sapiens, UniProt Q9P286); experiment: in vitro kinase assay; type: biochemical
Protocol: as §1, §2

PKC-alpha = PKC-alpha (Homo sapiens, UniProt P17252); experiment: in vitro kinase assay; type: biochemical
Protocol: as §1, §2

PKC-beta1 = PKC-beta1 (Homo sapiens, UniProt P05771); experiment: in vitro kinase assay; type: biochemical
Protocol: as §1, §2

PKC-gamma = PKC-gamma (Homo sapiens, UniProt P05129); experiment: in vitro kinase assay; type: biochemical
Protocol: as §1, §2

PLK1 = PLK1 (Homo sapiens, UniProt P53350); experiment: in vitro kinase assay; type: biochemical
Protocol: as §1, §2

S6K = S6K (Homo sapiens, UniProt P23443); experiment: in vitro kinase assay; type: biochemical
Protocol: as §1, §2

TGFB-R1 = TGFB-R1 (Homo sapiens, UniProt P36897); experiment: in vitro kinase assay; type: biochemical
Protocol: as §1, §2

TRK-C = TRK-C (Homo sapiens, UniProt Q16288); experiment: in vitro kinase assay; type: biochemical
TRK-C, sequence (Q16288 32-839): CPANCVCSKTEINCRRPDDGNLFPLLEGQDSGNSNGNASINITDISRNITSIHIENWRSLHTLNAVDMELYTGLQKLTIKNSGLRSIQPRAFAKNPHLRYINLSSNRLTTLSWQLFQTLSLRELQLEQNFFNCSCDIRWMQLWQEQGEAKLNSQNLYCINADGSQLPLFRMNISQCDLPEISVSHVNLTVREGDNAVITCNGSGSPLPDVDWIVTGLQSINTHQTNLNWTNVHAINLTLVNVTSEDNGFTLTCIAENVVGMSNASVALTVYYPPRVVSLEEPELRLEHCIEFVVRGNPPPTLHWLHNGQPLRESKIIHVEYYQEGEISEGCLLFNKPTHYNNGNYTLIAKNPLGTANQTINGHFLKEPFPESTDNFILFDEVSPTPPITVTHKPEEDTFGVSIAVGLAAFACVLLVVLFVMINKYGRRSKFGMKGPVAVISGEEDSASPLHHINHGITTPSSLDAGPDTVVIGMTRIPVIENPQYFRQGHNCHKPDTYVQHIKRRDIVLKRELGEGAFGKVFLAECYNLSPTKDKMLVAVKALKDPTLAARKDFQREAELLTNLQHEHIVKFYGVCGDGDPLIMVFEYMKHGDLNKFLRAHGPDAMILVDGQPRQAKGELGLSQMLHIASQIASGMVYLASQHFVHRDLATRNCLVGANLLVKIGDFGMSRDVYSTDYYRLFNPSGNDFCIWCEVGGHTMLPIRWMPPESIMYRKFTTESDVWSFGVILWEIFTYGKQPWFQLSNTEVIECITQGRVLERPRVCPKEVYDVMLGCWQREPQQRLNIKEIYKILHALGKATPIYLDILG
Protocol: as §1, §2

VRK1 = VRK1 (Homo sapiens, UniProt Q99986); experiment: in vitro kinase assay; type: biochemical
Protocol: as §1, §2

[1] = system: panel of 210 kinases representative of the human kinome; experiment: in vitro kinase panel; type: biochemical; settings: 25 kinases selected for IC50, in vitro assays
Protocol: as §1, §2

JVM-2 = experiment: cell viability assay; type: cell-based, human; settings: JVM-2 B-cell lymphoma (MCL), 48 h, with respect to untreated control cells
A-498 (Renal) = experiment: NCI60 panel IC50; type: cell-based; settings: Homo sapiens, A498
Protocol: (§3) On the other hand, the values of IC50 were determined in the panel of NCl60 cell lines for compound 10.
(§4) A total of 2 independent experiments were carried out with assays in triplicate for the compound and cell line. All those assays where an IC50 value was not reached in the highest concentration of 1E-05 M are represented by “>1E-05”. In these cases, the standard deviation cannot be calculated and for that reason it is calculated as “-”.

CCRF-CEM (Leukaemia) = experiment: NCI60 panel IC50; type: cell-based; settings: Homo sapiens
Protocol: as §3, §4

DAUDI (Leukaemia) = experiment: NCI60 panel IC50; type: cell-based; settings: Homo sapiens
Protocol: as §3, §4

HI-60 (Leukaemia) = experiment: NCI60 panel IC50; type: cell-based; settings: Homo sapiens
Protocol: as §3, §4

HOP-62 (Lung) = experiment: NCI60 panel IC50; type: cell-based; settings: Homo sapiens
Protocol: as §3, §4

MDA-MB-468 (Breast) = experiment: NCI60 panel IC50; type: cell-based; settings: Homo sapiens
Protocol: as §3, §4

OVCAR-3 (Ovarian) = experiment: NCI60 panel IC50; type: cell-based; settings: Homo sapiens
Protocol: as §3, §4

SF-268 (CNS) = experiment: NCI60 panel IC50; type: cell-based; settings: Homo sapiens, 2 experiments in triplicate
Protocol: as §3, §4

UO-31 (Renal) = experiment: NCI60 panel IC50; type: cell-based; settings: Homo sapiens
Protocol: as §3, §4

786-O (Renal) = experiment: NCI60 panel IC50; type: cell-based, human
Protocol: as §3, §4

OVCAR-5 (Ovarian) = experiment: NCI60 panel IC50; type: cell-based, human
Protocol: as §3, §4

ABL1, sequence (P00519 whole entry): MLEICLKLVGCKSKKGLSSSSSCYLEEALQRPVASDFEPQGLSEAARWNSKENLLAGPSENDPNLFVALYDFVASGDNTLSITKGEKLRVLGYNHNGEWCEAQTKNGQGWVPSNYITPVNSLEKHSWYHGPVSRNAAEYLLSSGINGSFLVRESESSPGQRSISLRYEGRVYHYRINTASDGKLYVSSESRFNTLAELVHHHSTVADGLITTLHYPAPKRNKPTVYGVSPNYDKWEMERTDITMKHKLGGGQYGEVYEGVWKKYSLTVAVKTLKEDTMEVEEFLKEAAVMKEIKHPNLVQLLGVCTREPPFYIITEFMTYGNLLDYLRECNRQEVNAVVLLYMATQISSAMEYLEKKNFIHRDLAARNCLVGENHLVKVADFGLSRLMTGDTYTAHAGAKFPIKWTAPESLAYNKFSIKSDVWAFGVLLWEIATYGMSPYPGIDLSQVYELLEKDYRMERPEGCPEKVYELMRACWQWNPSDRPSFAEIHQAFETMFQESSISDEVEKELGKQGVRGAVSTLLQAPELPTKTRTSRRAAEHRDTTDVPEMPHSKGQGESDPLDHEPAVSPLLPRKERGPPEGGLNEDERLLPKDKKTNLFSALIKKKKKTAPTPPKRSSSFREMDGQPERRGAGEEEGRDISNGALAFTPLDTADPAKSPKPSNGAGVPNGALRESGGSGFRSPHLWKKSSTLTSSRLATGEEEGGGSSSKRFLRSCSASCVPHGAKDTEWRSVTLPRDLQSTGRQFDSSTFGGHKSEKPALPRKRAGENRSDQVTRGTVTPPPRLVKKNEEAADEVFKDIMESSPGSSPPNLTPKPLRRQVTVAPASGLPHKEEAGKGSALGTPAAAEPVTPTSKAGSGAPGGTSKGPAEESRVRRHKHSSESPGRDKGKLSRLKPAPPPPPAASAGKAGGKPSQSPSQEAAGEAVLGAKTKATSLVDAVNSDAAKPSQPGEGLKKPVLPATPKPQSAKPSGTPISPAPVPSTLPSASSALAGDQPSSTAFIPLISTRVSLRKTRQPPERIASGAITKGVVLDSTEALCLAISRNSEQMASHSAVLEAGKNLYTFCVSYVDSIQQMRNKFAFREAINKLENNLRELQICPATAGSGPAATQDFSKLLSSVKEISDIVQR

pIC50 (ABL1): 5.27
inhibition of kinase Ack1 (ACK1): 85%
pIC50 (CDK4/CycD3): 5.27 and 5.28
inhibition of kinase cdk5 (CDK5/p25NCK; in vitro kinase assay): 80%
pIC50 (CDK5/p25NCK; kinase CDK5/p25NCK, in vitro): 5.04
pIC50 (CDK7/CycH/Mat1): 4.55
inhibition of kinase cdk9 (CDK9/CycT; in vitro kinase assay): 87%
pIC50 (CDK9/CycT; kinase CDK9/CycT, in vitro): 5.43
pIC50 (CHK1): 5.85
pIC50 (CSK): 4.89 and 5.14
pIC50 (FGF-R1 VM): 5.59
pIC50 (FGF-R2): 5.27
pIC50 (MET): 5.43
pIC50 (MUSK): 5.82
pIC50 (NLK): 5.37
pIC50 (PAK4): 5.37
pIC50 (PAK7): 5.31
pIC50 (PKC-alpha): 5.64
pIC50 (PKC-beta1): 5.12
pIC50 (PKC-gamma): 5.24 and 5.31
pIC50 (PLK1): 4.59
pIC50 (S6K): 5.36
pIC50 (TGFB-R1): 5.48
pIC50 (TRK-C): 5.14 and 5.18
pIC50 (VRK1): 5.62
inhibition of the 25 most sensitive kinases [1]: more than 80%
SMILES: CN1CCCNc2c(c(=O)c2=O)NCCCN(C)CCCNc2c(c(=O)c2=O)NCCCN(C)CCCNc2c(c(=O)c2=O)NCCCN(C)CCCNc2c(c(=O)c2=O)NCCCN(C)CCCNc2c(c(=O)c2=O)NCCC1 [Compound 10]
% Cell viability (JVM-2): 24%
pIC50 (A-498 (Renal)): 5.12
pIC50 (CCRF-CEM (Leukaemia)): 5.68
pIC50 (DAUDI (Leukaemia)): 5.70
pIC50 (HI-60 (Leukaemia)): 5.62
pIC50 (HOP-62 (Lung)): 5.20
pIC50 (MDA-MB-468 (Breast)): 5.63
pIC50 (OVCAR-3 (Ovarian)): 5.29
pIC50 (SF-268 (CNS)): 5.25
pIC50 (UO-31 (Renal)): 5.66
pIC50 (786-O (Renal); Homo sapiens, 786-0, 786-O (Renal), NCI60 panel, highest concentration 1E-05 M): < 5.00
sensitivity of the line to the tested compound (786-O (Renal); renal 786-O): resistant
pIC50 (OVCAR-5 (Ovarian); Homo sapiens, OVCAR-5 (Ovarian), NCI60 panel, highest concentration 1E-05 M): < 5.00
sensitivity of the line to the tested compound (OVCAR-5 (Ovarian); ovarian OVCAR-5): resistant
